The test system of one data set is BV-173. As to the kind of experiment: MTT cell viability assay, BV-173. It is filed as cell-based, human. The conditions noted are these: 72 h, ± standard deviation. The procedure:
(§1) Cell viability was determined using the MTT colorimetric assay. […] Statistical significance was determined at p ≤ 0.05.
For orientation: Formazan colour is commonly taken as a measure of viable cells.

The next data set relates to CCL-1. As to the kind of experiment: MTT cell viability assay, normal fibroblasts CCL-1. In kind it is cell-based, murine. Particulars: 72 h, non-malignant fibroblasts, ± standard deviation. The procedure:
as §1

In a further data set the test system is LAMA-84. In words: MTT cell viability assay, LAMA-84. In kind it is cell-based, human. Particulars: 72 h, ± standard deviation. Here is the method:
as §1

Another data set deals with AR-230. As to the kind of experiment: MTT cell viability assay, AR-230. Particulars: 72 h, ± standard deviation. It is filed as cell-based, human. Here is the method:
as §1

A further data set deals with K-562. In words: MTT cell viability assay, K-562. Particulars: 72 h, ± standard deviation. In kind it is cell-based, human. Here is the method:
as §1

For another data set, the system named is MDA-MB-231. More on the design: method as in doi:10.2533/chimia.2007.716. Particulars: hormone-independent breast cancer cells; cited from earlier work.
The nature of data set [1]: MTT cell viability assay, normal fibroblasts CCL-1. It is filed as cell-based, murine. The conditions noted are these: mouse, CCL-1 normal fibroblast cells, non-malignant fibroblasts, ± standard deviation. Here is the method: as §1

Turning to `Cc1ccc(NC(=O)c2ccc(CN3CCN(C)CC3)cc2)cc1Nc1nccc(-[c-]2cccc2)n1.[Fe+2].c1cc[cH-]c1` [Compound 6, N-(4-Methyl-3-((4-ferrocenylpyrimidin-2-yl)amino)phenyl)-4-((4-methylpiperazin-1-yl)methyl)benzamide], the IC50 in the data set with BV-173 turned out to be 33.6 ± 2.1 µM; in the data set with CCL-1, 55.7 ± 9.5 µM; in the data set on LAMA-84, 25.4 ± 2.9 µM; in the data set on AR-230 it was 5.9 ± 0.2 µM; in the data set on K-562 it was 29.9 ± 3.1 µM.

With `Cc1cn(-c2cc(NC(=O)c3ccc(C)c(Nc4nccc(-[c-]5cccc5)n4)c3)cc(C(F)(F)F)c2)cn1.[Fe+2].c1cc[cH-]c1` [Compound 9, 4-Methyl-N-(3-(4-methyl-1H-imidazol-1-yl)-5-(trifluoromethyl)phenyl)-3-((4-ferrocenylpyrimidin-2-yl)amino)benzamide], the IC50 with BV-173 was 33.6 ± 2.3 µM; in the data set with CCL-1, over 200 µM; with LAMA-84, 25.4 ± 2.4 µM; in the data set on AR-230, 144 ± 10.6 µM; with K-562 it was 25.9 ± 2.9 µM.

As to `Cc1ccc(NC(=O)[c-]2cccc2)cc1Nc1nccc(-c2cccnc2)n1.[Fe+2].c1cc[cH-]c1` [Compound 14, N-(4-Methyl-3-((4-(pyridin-3-yl)pyrimidin-2-yl)amino)phenyl)ferrocenecarboxamide], the half-inhibitory concentration (IC50) was 17.9 ± 3.1 µM in the data set with BV-173; over 200 µM with CCL-1; 27.3 ± 1.8 µM in the data set with LAMA-84; 5.1 ± 1.3 µM in the data set with AR-230; over 200 µM with K-562.

Take `Cc1ccc(C(=O)N[c-]2cccc2)cc1Nc1nccc(-c2cccnc2)n1.[Fe+2].c1cc[cH-]c1` [Compound 18, N-Ferrocenyl-4-methyl-3-((4-(pyridin-3-yl)pyrimidin-2-yl)amino)benzamide]: the IC50 in the data set with BV-173 was 15.1 ± 2.9 µM; in the data set on CCL-1, 60.2 ± 8.3 µM; with LAMA-84 it was 26.8 ± 3.2 µM; in the data set on AR-230, 5.1 ± 0.9 µM; with K-562 it was over 200 µM.

On to `CCC(=C(c1ccc(O)cc1)c1ccc(OCCCN(C)C)cc1)[c-]1cccc1.[Fe+2].c1cc[cH-]c1` [Hydroxy-ferrocifen], for which the IC50 in the data set on MDA-MB-231 is 0.5 µM.

In the case of `CC/C(=C(\c1ccc(O)cc1)c1ccc(OCCN(C)C)cc1)c1ccccc1` [Hydroxy-tamoxifen], the IC50 in the data set on MDA-MB-231 was 30 µM.

As to `Cc1ccc(NC(=O)c2ccc(CN3CCN(C)CC3)cc2)cc1Nc1nccc(-c2cccnc2)n1` [imatinib, reference compound], the IC50 at 72 h in data set [1] was over 200 µM.

What is called IC50 is the midpoint of a concentration-inhibition curve.

(Values after PMC12348835, “Design, Docking Analysis, and Structure–Activity Relationship of Ferrocene-Modified Tyrosine Kinase Inhibitors: Insights into BCR-ABL Interactions” (Molecules, 2025).)
